Data set [1] relates to Mus musculus. As to the kind of experiment: Antiinflammatory activity in CD1 mouse ear edema model assessed as reduction in phorbol myristate acetate-induced edema administered topically at right ear 1 hr before phorbol myristate acetate challenge and measured 6 to 24 hrs post dose. Type of data set: functional.
The test system of data set [2] is Mus musculus. As to the kind of experiment: Toxicity in CD1 mouse model phorbol myristate acetate-induced ear edema model at 0.1 mg/ear administered topically at right ear 1 hr before phorbol myristate acetate challenge and measured 24 hrs post dose. Type of data set: organism-based. The following applies: in vivo, topical_or_ocular.
Data set [3] has as its system Mus musculus. As to the kind of experiment: Antiinflammatory activity in CD1 mouse ear edema model assessed as reduction in phorbol myristate acetate-induced edema at 0.1 mg/ear administered topically at right ear 1 hr before phorbol myristate acetate challenge and measured 24 hrs post dose. It is filed as functional.

Take `CC(=O)O[C@@H]1[C@@H](O[C@H]2CC[C@H](C)[C@@]3(C)C[C@@H](/C(C)=C/C=C/C(C)(C)O)CC[C@H]23)OC[C@@H](O)[C@H]1O`: the “inhibition (INH)” value with Mus musculus [1] is given as 85%.

Regarding `C=C1CC/C=C(\C)CC[C@H](/C(C)=C/C=C/C(C)(C)O)C[C@H]1O` (relative stereo), the Activity result with Mus musculus [2] is given as “Non-toxic”.

For the compound `C/C1=C\C[C@@H](/C(C)=C/C=C/C(C)(C)O)CC/C(C)=C/CC1` [EUNICOL], the “inhibition (INH)” value with Mus musculus [3] is on record as 0.1%. Besides, the Activity result in the data set on Mus musculus [2] is given as “Non-toxic”.

On to `C=C[C@@]1(C)CC[C@H](/C(C)=C/C=C/C(C)(C)O)C[C@@H]1C(=C)C` [FUSCOL], for which, in the data set on Mus musculus [2], the Activity result is “Non-toxic”.

In the case of `C=C[C@@]1(C)CC[C@H](/C(C)=C/C=C/C(C)(C)O[C@@H]2OC[C@@H](O)[C@@H](O)[C@@H]2O)C[C@@H]1C(=C)C` [FUSCOSIDE B], the “inhibition (INH)” value in the data set with Mus musculus [1] is 52%.

The values above are taken from ChEMBL document CHEMBL2069185, “Eunicidiol, an anti-inflammatory dilophol diterpene from Eunicea fusca” (J Nat Prod, 2012).
